Data taken from PubChem BioAssay (NCI).
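Five compound concentrations were applied to cells in 96-well plates for 48 hours; endpoints were derived by simple linear interpolation of the resulting dose-response curve. Definition used: TGI = concentration required for complete inhibition of growth.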

Assays:
Assay in all cases: NCI anticancer screen, dose series, 48 h
786-0 renal = tested on: 786-0 renal
A498 renal = tested on: A498 renal
A549 NSCLC = tested on: A549 NSCLC
ACHN renal = tested on: ACHN renal
BT-549 breast = tested on: BT-549 breast
CAKI-1 renal = tested on: CAKI-1 renal
CCRF-CEM leukemia = tested on: CCRF-CEM leukemia
COLO 205 colon = tested on: COLO 205 colon
DU-145 prostate = tested on: DU-145 prostate
EKVX NSCLC = tested on: EKVX NSCLC
HCC-2998 colon = tested on: HCC-2998 colon
HCT-116 colon = tested on: HCT-116 colon
HCT-15 colon = tested on: HCT-15 colon
HL-60(TB) leukemia = tested on: HL-60(TB) leukemia
HOP-62 NSCLC = tested on: HOP-62 NSCLC
HOP-92 NSCLC = tested on: HOP-92 NSCLC
HS 578T breast = tested on: HS 578T breast
HT29 colon = tested on: HT29 colon
IGROV1 ovarian = tested on: IGROV1 ovarian
K-562 leukemia = tested on: K-562 leukemia
KM12 colon = tested on: KM12 colon
LOX IMVI melanoma = tested on: LOX IMVI melanoma
M14 melanoma = tested on: M14 melanoma
MALME-3M melanoma = tested on: MALME-3M melanoma
MCF7 breast = tested on: MCF7 breast
MDA-MB-231 breast = tested on: MDA-MB-231 breast
MDA-MB-435 = tested on: MDA-MB-435
MDA-N = tested on: MDA-N
MOLT-4 leukemia = tested on: MOLT-4 leukemia
NCI-H226 lung = tested on: NCI-H226 lung
NCI-H23 lung = tested on: NCI-H23 lung
NCI-H460 lung = tested on: NCI-H460 lung
NCI-H522 lung = tested on: NCI-H522 lung
NCI/ADR-RES ovarian = tested on: NCI/ADR-RES ovarian
OVCAR-3 ovarian = tested on: OVCAR-3 ovarian
OVCAR-4 ovarian = tested on: OVCAR-4 ovarian
OVCAR-5 ovarian = tested on: OVCAR-5 ovarian
OVCAR-8 ovarian = tested on: OVCAR-8 ovarian
PC-3 prostate = tested on: PC-3 prostate
RPMI-8226 leukemia = tested on: RPMI-8226 leukemia
SF-268 CNS = tested on: SF-268 CNS
SF-295 CNS = tested on: SF-295 CNS
SF-539 CNS = tested on: SF-539 CNS
SK-MEL-2 melanoma = tested on: SK-MEL-2 melanoma
SK-MEL-28 melanoma = tested on: SK-MEL-28 melanoma
SK-MEL-5 melanoma = tested on: SK-MEL-5 melanoma
SK-OV-3 ovarian = tested on: SK-OV-3 ovarian
SN12C renal = tested on: SN12C renal
SNB-19 CNS = tested on: SNB-19 CNS
SNB-75 CNS = tested on: SNB-75 CNS
SR leukemia = tested on: SR leukemia
SW-620 colon = tested on: SW-620 colon
T-47D breast = tested on: T-47D breast
TK-10 renal = tested on: TK-10 renal
U251 CNS = tested on: U251 CNS
UACC-257 melanoma = tested on: UACC-257 melanoma
UACC-62 melanoma = tested on: UACC-62 melanoma
UO-31 renal = tested on: UO-31 renal
RXF 393 renal = tested on: RXF 393 renal

**Q.** What does the source list for `OC(c1ccc2c(c1)OCO2)c1ccc2c(c1)OCO2`?
**A.** TGI (786-0 renal): > 100 µM; TGI (A498 renal): > 100 µM; TGI (A549 NSCLC): > 100 µM; TGI (ACHN renal): > 100 µM; TGI (BT-549 breast): > 100 µM; TGI (CAKI-1 renal): > 100 µM; TGI (CCRF-CEM leukemia): > 100 µM; TGI (COLO 205 colon): > 100 µM; TGI (DU-145 prostate): > 100 µM; TGI (EKVX NSCLC): > 100 µM; TGI (HCC-2998 colon): > 100 µM; TGI (HCT-116 colon): > 100 µM; TGI (HCT-15 colon): > 100 µM; TGI (HL-60(TB) leukemia): > 100 µM; TGI (HOP-62 NSCLC): > 100 µM; TGI (HOP-92 NSCLC): > 100 µM; TGI (HS 578T breast): > 100 µM; TGI (HT29 colon): > 100 µM; TGI (IGROV1 ovarian): > 100 µM; TGI (K-562 leukemia): > 100 µM; TGI (KM12 colon): > 100 µM; TGI (LOX IMVI melanoma): > 100 µM; TGI (M14 melanoma): > 100 µM; TGI (MALME-3M melanoma): > 100 µM; TGI (MCF7 breast): > 100 µM; TGI (MDA-MB-231 breast): > 100 µM; TGI (MDA-MB-435): > 100 µM; TGI (MDA-N): > 100 µM; TGI (MOLT-4 leukemia): > 100 µM; TGI (NCI-H226 lung): > 100 µM; TGI (NCI-H23 lung): > 100 µM; TGI (NCI-H460 lung): > 100 µM; TGI (NCI-H522 lung): > 100 µM; TGI (NCI/ADR-RES ovarian): > 100 µM; TGI (OVCAR-3 ovarian): > 100 µM; TGI (OVCAR-4 ovarian): > 100 µM; TGI (OVCAR-5 ovarian): > 100 µM; TGI (OVCAR-8 ovarian): > 100 µM; TGI (PC-3 prostate): > 100 µM; TGI (RPMI-8226 leukemia): > 100 µM; TGI (SF-268 CNS): > 100 µM; TGI (SF-295 CNS): > 100 µM; TGI (SF-539 CNS): > 100 µM; TGI (SK-MEL-2 melanoma): > 100 µM; TGI (SK-MEL-28 melanoma): > 100 µM; TGI (SK-MEL-5 melanoma): > 100 µM; TGI (SK-OV-3 ovarian): > 100 µM; TGI (SN12C renal): > 100 µM; TGI (SNB-19 CNS): > 100 µM; TGI (SNB-75 CNS): > 100 µM; TGI (SR leukemia): > 100 µM; TGI (SW-620 colon): > 100 µM; TGI (T-47D breast): > 100 µM; TGI (TK-10 renal): > 100 µM; TGI (U251 CNS): > 100 µM; TGI (UACC-257 melanoma): > 100 µM; TGI (UACC-62 melanoma): > 100 µM; TGI (UO-31 renal): > 100 µM

**Q.** `CCCCCCCCCCCCCCCCOP(=O)(O)OCC(NC(C)=O)C(=O)O` (centres undefined) was tested. Which TGI (786-0 renal) did it give?
**A.** Its TGI is greater than 100 µM.

**Q.** What about the TGI (A498 renal) of the same compound?
**A.** The TGI was greater than 100 µM.

**Q.** What about the TGI (A549 NSCLC) of the same compound?
**A.** Its TGI is greater than 100 µM.

**Q.** What about the TGI (ACHN renal) of the same compound?
**A.** The TGI was greater than 100 µM.

**Q.** And the TGI (BT-549 breast)?
**A.** Its TGI is 34 µM.

**Q.** And the TGI (CAKI-1 renal)?
**A.** The TGI was greater than 100 µM.

**Q.** And the TGI (COLO 205 colon)?
**A.** The TGI was greater than 100 µM.

**Q.** And the TGI (DU-145 prostate)?
**A.** The TGI was greater than 100 µM.

**Q.** What about the TGI (EKVX NSCLC) of the same compound?
**A.** The TGI was greater than 100 µM.

**Q.** What about the TGI (HCC-2998 colon) of the same compound?
**A.** The TGI was greater than 100 µM.

**Q.** And the TGI (HCT-116 colon)?
**A.** The TGI was greater than 100 µM.

**Q.** And the TGI (HCT-15 colon)?
**A.** The TGI was 34.3 µM.

**Q.** And the TGI (HL-60(TB) leukemia)?
**A.** The TGI was greater than 100 µM.

**Q.** What about the TGI (HOP-62 NSCLC) of the same compound?
**A.** The TGI was 36.9 µM.

**Q.** What about the TGI (HOP-92 NSCLC) of the same compound?
**A.** The TGI was greater than 100 µM.

**Q.** What about the TGI (HS 578T breast) of the same compound?
**A.** The TGI was greater than 100 µM.

**Q.** And the TGI (HT29 colon)?
**A.** The TGI was greater than 100 µM.

**Q.** What about the TGI (IGROV1 ovarian) of the same compound?
**A.** The TGI was 62.2 µM.

**Q.** What about the TGI (K-562 leukemia) of the same compound?
**A.** Its TGI is greater than 100 µM.

**Q.** What about the TGI (LOX IMVI melanoma) of the same compound?
**A.** Its TGI is greater than 100 µM.

**Q.** What about the TGI (M14 melanoma) of the same compound?
**A.** The TGI was greater than 100 µM.

**Q.** What about the TGI (MALME-3M melanoma) of the same compound?
**A.** Its TGI is greater than 100 µM.

**Q.** What about the TGI (MCF7 breast) of the same compound?
**A.** Its TGI is greater than 100 µM.

**Q.** And the TGI (MDA-MB-231 breast)?
**A.** The TGI was 93.2 µM.

**Q.** And the TGI (MDA-MB-435)?
**A.** Its TGI is greater than 100 µM.

**Q.** What about the TGI (MDA-N) of the same compound?
**A.** Its TGI is greater than 100 µM.

**Q.** And the TGI (MOLT-4 leukemia)?
**A.** Its TGI is 51.8 µM.

**Q.** What about the TGI (NCI-H226 lung) of the same compound?
**A.** The TGI was greater than 100 µM.

**Q.** What about the TGI (NCI-H23 lung) of the same compound?
**A.** The TGI was greater than 100 µM.

**Q.** What about the TGI (NCI-H460 lung) of the same compound?
**A.** Its TGI is greater than 100 µM.

**Q.** And the TGI (NCI-H522 lung)?
**A.** Its TGI is greater than 100 µM.

**Q.** What about the TGI (NCI/ADR-RES ovarian) of the same compound?
**A.** The TGI was greater than 100 µM.

**Q.** What about the TGI (OVCAR-3 ovarian) of the same compound?
**A.** Its TGI is greater than 100 µM.

**Q.** And the TGI (OVCAR-4 ovarian)?
**A.** Its TGI is 60.7 µM.

**Q.** And the TGI (OVCAR-5 ovarian)?
**A.** Its TGI is greater than 100 µM.

**Q.** What about the TGI (OVCAR-8 ovarian) of the same compound?
**A.** The TGI was greater than 100 µM.

**Q.** And the TGI (PC-3 prostate)?
**A.** Its TGI is 34.7 µM.

**Q.** And the TGI (RPMI-8226 leukemia)?
**A.** Its TGI is greater than 100 µM.

**Q.** And the TGI (RXF 393 renal)?
**A.** The TGI was 48.3 µM.

**Q.** And the TGI (SF-268 CNS)?
**A.** The TGI was 95.9 µM.

**Q.** And the TGI (SF-295 CNS)?
**A.** The TGI was 47.4 µM.

**Q.** What about the TGI (SF-539 CNS) of the same compound?
**A.** The TGI was greater than 100 µM.

**Q.** And the TGI (SK-MEL-2 melanoma)?
**A.** The TGI was greater than 100 µM.

**Q.** And the TGI (SK-MEL-28 melanoma)?
**A.** The TGI was greater than 100 µM.

**Q.** And the TGI (SK-MEL-5 melanoma)?
**A.** The TGI was greater than 100 µM.

**Q.** What about the TGI (SK-OV-3 ovarian) of the same compound?
**A.** Its TGI is greater than 100 µM.

**Q.** And the TGI (SN12C renal)?
**A.** The TGI was greater than 100 µM.

**Q.** What about the TGI (SNB-19 CNS) of the same compound?
**A.** The TGI was 35.6 µM.

**Q.** And the TGI (SNB-75 CNS)?
**A.** Its TGI is 98.2 µM.

**Q.** And the TGI (SR leukemia)?
**A.** Its TGI is greater than 100 µM.

**Q.** And the TGI (SW-620 colon)?
**A.** Its TGI is greater than 100 µM.

**Q.** And the TGI (T-47D breast)?
**A.** Its TGI is greater than 100 µM.

**Q.** And the TGI (TK-10 renal)?
**A.** Its TGI is 62.6 µM.

**Q.** What about the TGI (U251 CNS) of the same compound?
**A.** The TGI was 40.8 µM.

**Q.** What about the TGI (UACC-257 melanoma) of the same compound?
**A.** Its TGI is greater than 100 µM.

**Q.** What about the TGI (UO-31 renal) of the same compound?
**A.** Its TGI is greater than 100 µM.
